pIC50: −log10 of the molar value.
Biological target: T1, human plasma protein factor Xa (Homo sapiens, UniProt P00742)
T1 construct: The human plasma protein factor Xa was purchased; purchased Haematologic Technologies (Essex Junction, Vt.); host or cells: human plasma
Assay: Factor Xa IC50 determination (cleavage of paranitroanilide substrate S-2765)
Format: biochemical
Settings: fXa 1 nM, S2765 100 μM, Tris buffered saline pH 7.4, room temperature
From the text: This example illustrates methods for evaluating the compounds of the invention, along with results obtained for such assays. The in vitro and in vivo Factor Xa isoform activities of the inventive compounds can be determined by various procedures known in the art, such as a test for their ability to inhibit the activity of the Factor Xa isoform. […] The IC50 value is the concentration (in nM) of the compound required to provide 50% inhibition of Factor Xa isoform.
An in vitro assay for detecting and measuring inhibition activity against Factor Xa is as follows:
IC50 and Ki Determinations:
The substrate S-2765 (Z-D-Arg-Gly-Arg-pNA.HCl) was obtained from Diapharma (West Chester, Ohio).
The human plasma protein factor Xa was purchased from Haematologic Technologies (Essex Junction, Vt.).
All assays, which are performed in 96-well microtiter plates, measure proteolytic activity of the enzyme (factor Xa) by following cleavage of paranitroanilide substrate. The assay buffer used for proteolytic assays was Tris buffered saline (20 mM Tris, 150 mM NaCl, 5 mM CaCl2, 0.1% Bovine serum albumin (BSA), 5% Dimethly Sulfoxide (DMSO) pH 7.4). In a 96-well microtiter plate, inhibitor was serially diluted to give a range of concentrations from 0.01 nM to 10 μM (final). Duplicate sets of wells were assayed and control wells without inhibitor were included. Enzyme was added to each well, (fXa concentration=1 nM), the plate was shaken for 5 seconds and then incubated for 5 minutes at room temperature. S2765 was added (100 μM final) and the plate was shaken for 5 seconds (final liquid volume in each well was 200 μl). The degree of substrate hydrolysis was measured at 405 nm on a Thermomax plate reader (Molecular Devices, Sunnyvale, Calif.) for 2 minutes. The initial velocities (mOD/min), for each range of inhibitor concentrations, were fitted to a four parameter equation using Softmax data analysis software. The parameter C, derived from the resulting curve-fit, corresponded to the concentration for half maximal inhibition (IC50).

T1 sequence (P00742 235-488 limits assumed): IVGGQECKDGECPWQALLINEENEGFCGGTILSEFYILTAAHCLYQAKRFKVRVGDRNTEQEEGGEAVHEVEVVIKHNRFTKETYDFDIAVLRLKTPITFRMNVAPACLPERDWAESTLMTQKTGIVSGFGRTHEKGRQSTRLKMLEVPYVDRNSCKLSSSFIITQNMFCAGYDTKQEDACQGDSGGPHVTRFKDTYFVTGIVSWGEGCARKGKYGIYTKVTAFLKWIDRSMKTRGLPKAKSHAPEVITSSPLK
T1 sequence (P00742 41-179 partner limits assumed): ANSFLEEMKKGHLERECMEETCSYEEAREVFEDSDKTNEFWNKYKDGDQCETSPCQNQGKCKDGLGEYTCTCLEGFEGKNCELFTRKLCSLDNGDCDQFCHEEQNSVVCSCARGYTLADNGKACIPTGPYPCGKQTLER

SMILES	pIC50
N=C(c1ccc(NC(=O)C2Cc3ccccc3CN2C(=O)Nc2ccc(Cl)cc2)cc1)N1CCCC1 (centres unmarked) [Example 4, N-[4-(pyrrolidinylimino)phenyl]-2N-(4-chlorophenylaminocarbonyl)-1,2,3,4-tetrahydroisoquinoline-3-carboxamide]	≥ 7.00
CN1CCCN(c2ccc(NC(=O)[C@H]3Cc4ccccc4CN3C(=O)Nc3ccc(Cl)cc3)cc2)C(=O)C1 [Example 46, (3R) N-[4-(4-methyl-2-homopiperazinon-1-yl)phenyl]-2N-(4-chlorophenylaminocarbonyl)-1,2,3,4-tetrahydroisoquinoline-3-carboxamide]	≥ 7.00
CN1CCCN(c2ccc(NC(=O)[C@H]3Cc4ccccc4CN3C(=O)Nc3ccc(Cl)s3)cc2)CC1 [Example 49, (3R) N-[4-(4-methyl-homopiperazin-1-yl)phenyl]-2N-[5-(2-chlorothiophene)aminocarbonyl]-1,2,3,4-tetrahydroisoquinoline-3-carboxamide]	≥ 7.00
O=C(Nc1ccc(-n2ccccc2=O)cc1)[C@H]1Cc2ccccc2CN1C(=O)Nc1ccc(Cl)cc1 [Example 36, (3R) N-[4-(2-pyridon-1-yl)phenyl]-2N-(4-chlorophenylaminocarbonyl)-1,2,3,4-tetrahydroisoquinoline-3-carboxamide]	≥ 7.00
O=C(Nc1ccc(-n2ccccc2=O)cc1F)[C@H]1Cc2ccccc2CN1C(=O)Nc1ccc(Cl)cc1 [Example 38, (3R) N-[4-(2-pyridon-1-yl)-2-fluorophenyl]-2N-(4-chlorophenylaminocarbonyl)-1,2,3,4-tetrahydroisoquinoline-3-carboxamide]	≥ 7.00
O=C(Nc1ccc(-c2cccc[n+]2[O-])cc1)C1Cc2ccccc2N1C(=O)Nc1ccc(Cl)cc1 (centres unmarked) [Example 32, N-[4-(1N-oxo-pyridin-2-yl)phenyl]-1N-(4-chlorophenylaminocarbonyl)-indoline-2-carboxamide]	6.30 to 7.00
Cc1cccc2c1CC(C(=O)Nc1ccc(C3=NCCN3C)cc1)N(C(=O)Nc1ccc(Cl)cc1)C2 (centres unmarked) [Example 18, N-[4-(1-methyl-4,5-dihydro-1H-imidazol-2-yl)phenyl]-2N-(4-chlorophenylaminocarbonyl)-5-methyl-1,2,3,4-tetrahydroisoquinoline-3-carboxamide]	≥ 7.00
CN1CCC(N2CCN(C(=O)C3Cc4ccccc4CN3C(=O)Nc3ccc(Cl)cc3)CC2)CC1 (centres unmarked) [Example 11, 4-(1-methylpiperidin-4-yl)piperazinyl 2N-(4-chlorophenylaminocarbonyl)-1,2,3,4-tetrahydroisoquinoline-3-carboxamide]	≥ 7.00
CN1CCCN(c2ccc(NC(=O)C3Cc4cc(O)ccc4CN3C(=O)Nc3ccc(Cl)cc3)cc2)CC1 (centres unmarked) [Example 40, N-[4-(4-methyl-homopiperazinyl)phenyl]-2N-(4-chlorophenylaminocarbonyl)-6-hydroxy-1,2,3,4-tetrahydroisoquinoline-3-carboxamide]	≥ 7.00
O=C(Nc1ccc(C(=O)N2CCSC2)cc1)C1Cc2ccccc2CN1C(=O)Nc1ccc(Cl)cc1 (centres unmarked) [Example 15, N-[4-(3-thiazolidinylcarbonyl)phenyl]-2N-(4-chlorophenylaminocarbonyl)-1,2,3,4-tetrahydroisoquinoline-3-carboxamide]	≥ 7.00
O=C([C@H]1Cc2ccccc2CN1C(=O)Nc1ccc(Cl)cc1)N1CCC(N2CCCCC2=O)CC1 [Example 42, (3R) 4-(2-piperidinon-1-yl)piperidin-1-yl 2N-(4-chlorophenylaminocarbonyl)-1,2,3,4-tetrahydroisoquinoline-3-carboxamide]	≥ 7.00
CN(C)Cc1nccn1-c1ccc(NC(=O)C2Cc3ccccc3CN2C(=O)Nc2ccc(Cl)cc2)c(F)c1 (centres unmarked) [Example 13, N-[4-(2-dimethylaminomethyl-imidazol-1-yl)-2-fluorophenyl]-2N-(4-chlorophenylaminocarbonyl)-1,2,3,4-tetrahydroisoquinoline-3-carboxamide]	≥ 7.00
CC(C)N1CCC(NC(=O)C2Cc3ccccc3CN2C(=O)Nc2ccc(Cl)cc2)CC1 (centres unmarked) [Example 12, N-(1-isopropylpiperidin-4-yl)2N-(4-chlorophenylaminocarbonyl)-1,2,3,4-tetrahydroisoquinoline-3-carboxamide]	≤ 6.30
CN1CCN=C1c1cccc(CNC(=O)C2Cc3ccccc3CN2C(=O)Nc2ccc(Cl)cc2)c1 (centres unmarked) [Example 7, N-[3-(1-methyl-4,5-dihydro-1H-imidazol-2-yl)benzyl]-2N-(4-chlorophenylaminocarbonyl)-1,2,3,4-tetrahydroisoquinoline-3-carboxamide]	≤ 6.30

— US7612089B2, “Tetrahydroisoquinolines as factor Xa inhibitors” (Portola Pharmaceuticals, Inc., priority 2004, dated 2009)
